Patent US20020035111A1, “Method of inhibiting neoplastic cells with tetracyclic pyrido[3,4-B] indole derivatives” (priority 1998, published 2002)

COc1ccc([C@H]2c3[nH]c4ccccc4c3C[C@@H]3C(=O)N(Cc4ccccc4)CC(=O)N23)cc1 (relative stereo) [Example 32, Cis-2,3,6,7,12,12a-Hexahydro-2-Benzyl-6-(4-Methoxyphenyl)Pyrazino(2′,1′:6,1)Pyrido(3,4-b)Indole-1,4-Dione]
melting point: 275 to 279 °C
